This is an account of results in US9895363B2, “Methods for modulating function of proliferating cell nuclear antigen (PCNA) and treating cancer with PCNA-targeting compounds” (University of Cincinnati, priority 2010, dated 2018).

One data set concerns T47D breast cancer cells. Kind of data set: Growth inhibition by MTT staining, T47D. The data set is classed as cell-based. The settings on record: 96 h, Human tumor cells, treated four days. The procedure: (§1) Growth inhibitory effects of PCNA-I1 and PCNA-I2 were assessed in human cancer cell lines, mouse cancer cell lines, immortalized mouse cell lines, and human primary cell lines. Specifically, growth inhibitory effects of PCNA-I1 and PCNA-I2 were assessed using MTT staining in the following cells lines: 1) human cancer cell lines including LNCaP (androgen receptor […]), 22Rv1, DU-145, LAPC-4, and PC-3 (androgen receptor […]) prostate cancer cells; MCF-7 and T47D breast cancer cells; A375 and MDA-MB435 melanoma cells; 2) mouse cancer cell lines including TRAMP-C2RE3 prostate cancer cells, B16 and K1735 melanoma cells, UV2237 fibrosarcoma cells, and CT-26 colon cancer cells; 3) immortalized mouse lung cell lines and mouse endothelial cell lines; and 4) primary human cell lines including umbilical endothelial cells (HUVEC, PromoCell, Heidelberg, Germany), primary bone marrow mesenchymal stem cells (HuMSC, PromoCell), primary human mammary epithelial cells (HuBrEC, Lonza, Walkersville, Md.), primary human prostate epithelial cells (HuPrEC, Lonza), and primary mouse spleen lymphocytes (isolated in this laboratory), and primary mouse bone marrow stromal cells (isolated in this laboratory). […]
(§2) IC50 values were derived from growth inhibition curves. […] Inhibition of cell growth was calculated using the formula: growth inhibition (%)=(1−A570 of treated/A570 of control)×100. […]

A short description of data set [1]: Toxicity evaluation in tumor-bearing mice. The class given is in vivo. As to the method: (§3) The therapeutic effects of PCNA-I1 were evaluated in LNCaP cells and 22Rv1 tumor models. LNCaP or 22Rv1 cells (1-2×10^6 cells in gelfoam) were implanted into the subcutis of male nude mice. From four to five days later, tumor-bearing mice were intraperitoneally injected with 10 mg/kg or 50 mg/kg of PCNA-I1. The therapy was continued at three times/week until termination of experiments. Control and treated tumor-bearing mice were monitored daily. Mouse body weight was recorded for toxicity evaluation twice a week and tumor size was measured using calipers twice a week. The experiments were terminated when mice in control groups were moribund. Additionally, to further evaluate potential liver and renal toxicity of PCNA-I1, the blood of tumor-bearing mice were sampled after the treatment with PCNA-I1 for 8 weeks.

Data set [2] deals with Lung Endothelial Cells (immortal) (Mu-Lu-Endo). Kind of data set: Growth inhibition, mouse lung endothelial cells. The data set is classed as cell-based. The conditions noted are these: for IC50: Endothelial cell. As to the method:
Growth inhibitory effects of PCNA-I1 and PCNA-I2 were assessed in human cancer cell lines, mouse cancer cell lines, immortalized mouse cell lines, and human primary cell lines. Specifically, growth inhibitory effects of PCNA-I1 and PCNA-I2 were assessed using MTT staining in the following cells lines: 1) human cancer cell lines including LNCaP (androgen receptor […]), 22Rv1, DU-145, LAPC-4, and PC-3 (androgen receptor […]) prostate cancer cells; MCF-7 and T47D breast cancer cells; A375 and MDA-MB435 melanoma cells; 2) mouse cancer cell lines including TRAMP-C2RE3 prostate cancer cells, B16 and K1735 melanoma cells, UV2237 fibrosarcoma cells, and CT-26 colon cancer cells; 3) immortalized mouse lung cell lines and mouse endothelial cell lines; and 4) primary human cell lines including umbilical endothelial cells (HUVEC, PromoCell, Heidelberg, Germany), primary bone marrow mesenchymal stem cells (HuMSC, PromoCell), primary human mammary epithelial cells (HuBrEC, Lonza, Walkersville, Md.), primary human prostate epithelial cells (HuPrEC, Lonza), and primary mouse spleen lymphocytes (isolated in this laboratory), and primary mouse bone marrow stromal cells (isolated in this laboratory). PCNA-I1 and PCNA-I2 were either provided by the University of Cincinnati Drug Discovery Center (UC-DDC, Cincinnati, Ohio) or were purchased from Chembridge Co (San Diego, Calif.), ChemDiv (San Diego, Calif.), and/or Sigma-Aldrich (St Louis, Mo.).
Growth inhibitory effects of the compounds were assessed by MTT staining as described previously by Dong et al. in In Vitro Model for Intrinsic Drug Resistance: Effects of Protein Kinase C Activators on the Chemosensitivity of Cultured Human Colon Cancer Cells; Mol. Pharmacol. 1991; 39: 563-9. […]
IC50 values were derived from growth inhibition curves. […] Inhibition of cell growth was calculated using the formula: growth inhibition (%)=(1−A570 of treated/A570 of control)×100. […] The fluorescence intensity was measured at 530/580 (excitation/emission) in the FLUOstar Omega microplate reader (BMG LABTECH, Cary, N.C.). […]

Data set [3] has as its system PC-3 cells. Put plainly: Alamar blue assay, PC-3 cells as positive control. The class given is cell-based, Human. The settings on record: FIG. 2(B). The procedure:
The effects of PCNA-I1 on growth of tumor cells versus primary cells was also investigated. Specifically, the effects of PCNA-1I on the growth of primary cells was investigated using primary culture of mouse lymphocytes. An Alamar blue assay was performed with PC-3 cells as a positive control. Freshly prepared mouse spleen lymphocytes were stimulated for 72 H with 2 μg/mL of concanavalin A. During the last 24 H, 20 μL/well of alamar blue was added. The fluorescence intensity was measured at 530/580 (excitation/emission).
Background: Alamar Blue is a resazurin reagent that responds to reducing activity.

The subject of data set [4] is LAPC-4 prostate cancer cells. Kind of data set: Growth inhibition by MTT staining, LAPC-4. The data set is classed as cell-based. The conditions noted are these: LAPC4, 96 h, Human tumor cells, treated four days. The procedure: as §1, §2
Data set [5] has as its system LNCaP cells. Put plainly: LNCaP tumor model in male nude mice. The class given is in vivo. The procedure:
as §3

Data set [6] relates to PC-3 cells. Put plainly: MTT assay, PCNA-I1 and cisplatin alone or combined, PC-3. The settings on record: Homo sapiens. The class given is cell-based, Human. As to the method: (§4) LNCaP or PC-3 cells were treated with a variety of concentrations of PCNA-I1 (0.1-10 μM) or cisplatin (0.1-10 μM) alone, or with a variety of concentrations of a combination of PCNA-I1 (0.1-10 μM) and cisplatin (0.1-10 μM) for four days. MTT assays were performed and IC50 values for PCNA-I1 and cisplatin were determined.
(In general: Tetrazolium dyes change colour on reduction, which living cells bring about.)

Data set [7] relates to LNCaP cells. Put plainly: MTT assay, PCNA-I1 and cisplatin alone or combined, LNCaP. The class given is cell-based, Human. The settings on record: Homo sapiens, LNCaP. As to the method:
as §4

Read-outs that look alike come from different tables or passages of the source.

Take `Cc1ccsc1C(=O)N/N=C/c1ccc2ccccc2c1O` [PCNA-I1]: the IC50 with T47D breast cancer cells turned out to be 150 nM; in data set [2] (Mouse, Blood Vessel, normal cells, read-out: IC50 Values, Lung Endothelial Cells (immortal)), 1160 nM; in data set [2] (Mus musculus, FIG. 2(C), read-out: IC50, Mu-Lu-Endo) it was 1160 nM; in the data set with PC-3 cells [3] (Homo sapiens, PC-3, Alamar blue assay) it was 482 nM; in data set [4] it was 300 nM; in the data set on PC-3 cells [6] (PC-3, 96 h, MTT, four days, single agent, read-out: IC50 doses for cell growth inhibition, PC-3, agent alone) it was 240 nM. Moreover, the IC50 turned out to be 80 nM in the data set with PC-3 cells [6] (PC-3, combined with 0.3 μM cisplatin, read-out: PCNA-I1 concentration giving 50% inhibition in combination, PC-3); 230 nM in the data set with LNCaP cells [7] (96 h, MTT, four days, single agent, read-out: IC50 doses for cell growth inhibition, LNCaP, agent alone); 67 nM in the data set with LNCaP cells [7] (combined with 0.3 μM cisplatin, read-out: PCNA-I1 concentration giving 50% inhibition in combination, LNCaP). Also, in data set [1] (10 or 50 mg/kg i.p. every other day, up to 8 weeks), the “Body weight of tumor-bearing mice” value is given as “did not cause significant reduction in the body weight”. Moreover, the “Aspartate transaminase (AST or SGOT)” value in data set [1] (treatment for 8 weeks, FIG. 21) is reported as “not significantly altered”. Also, in data set [1] (treatment for 8 weeks, FIG. 21), the “Blood urea nitrogen (BUN)” value is given as “not significantly altered”. Further, the “Serum alanine transaminase (ALT or SGPT)” value in data set [1] (treatment for 8 weeks, FIG. 21) is listed as “not significantly altered”. In addition, the “Growth stimulation, Mu-Lu-Endo” value in data set [2] (FIG. 2(C)) is listed as “Moderate growth stimulation”. Moreover, the “Susceptibility of PC-3 cells relative to lymphocytes” value in the data set on PC-3 cells [3] is listed as “approximately three times more susceptible than lymphocytes”. In addition, in the data set with LNCaP cells [5] (50 mg/kg i.p., three times/week), the “Tumor eradication, LNCaP model” value is recorded as “eradication of LNCaP tumors in some mice”. In addition, the “Tumor growth, LNCaP model” value in the data set with LNCaP cells [5] (10 or 50 mg/kg i.p., three times/week) is recorded as “retarded tumor growth”. Besides, the “PCNA expression in tumor (immunohistochemistry)” value with LNCaP cells [5] (LNCaP tumor, 10 mg/kg three times/week, FIG. 22) is listed as “reduced PCNA expression”.
